# Measured values reported in the supplement of paper PMC10307832.
# Compound: COc1cc(-c2nn([C@H]3CC[C@H](N4CCN(C(C)=O)CC4)CC3)c3ncnc(N)c23)ccc1NC(=O)c1cc2ccccc2n1C + CCNC(=O)c1noc(-c2cc(C(C)C)c(O)cc2O)c1-c1ccc(CN2CCOCC2)cc1 [Luminespib] (partner 0.01 µM)
# Assay: relative viability (nuclei count vs DMSO), 5 days (fraction); higher = more cells survive
# Conditions: first compound 0.0128 µM
# Method in brief: (§1)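 Nuclei were stained with Hoechst during a one-step fixation (final 0.05% Triton X-100, 1% formaldehyde, 1 ug/ml Hoechst) carried out 5 days after dosing, then counted on 4× images. The cells, lung cancer lines in 1536-well plates, had been dosed by pin tool the day after seeding with one drug alone or a fixed anchor-drug dose plus five library-drug doses (not always all listed) in √10 steps. Relative viability is the nuclei count in treated wells divided by that in vehicle wells, and each value is the median of duplicate plates.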
row,Cell Line,relative viability
1,NCI-H2126,0.947
2,EMC-BAC-2,1.21
3,NCI-H2085,0.416
4,NCI-H1666,0.926
5,NCI-H596,1.06
6,LK-2,0.21
7,NCI-H2087,0.196
8,SK-MES-1,0.686
9,H3255,0.959
10,COR-L23,0.713
11,COR-L 105,0.641
12,LOU-NH91,0.413
13,NCI-H2405,0.862
14,HOP-62,0.972
15,HCC-44,1.21
16,LU99A,0.261

row,Cell Line,relative viability
1,BEN,0.156
2,HARA,0.784
3,NCI-H322M,0.887
4,LCLC-97TM1,0.838
5,NCI-H2009,1.1
6,A-427,1.16
7,NCI-H441,0.337
8,NCI-H661,0.901
9,NCI-H1734,0.219
10,NCI-H460,0.0282
11,NCI-H2347,0.619
12,SK-LU-1,0.213
13,NCI-H1395,0.631
14,201T,1.04
15,NCI-H1915,0.877

# Same assay, conditions: first compound 0.04048 µM
row,Cell Line,relative viability
1,NCI-H2126,0.957
2,EMC-BAC-2,1.18
3,NCI-H2085,0.524
4,NCI-H1666,0.994
5,NCI-H596,1.2
6,LK-2,0.171
7,SK-MES-1,0.928
8,H3255,1.06
9,COR-L23,0.667
10,COR-L 105,0.707
11,LOU-NH91,0.28
12,NCI-H2405,0.529
13,HOP-62,0.823
14,HCC-44,1.27
15,LU99A,0.251
16,BEN,0.398
17,HARA,1.03
18,NCI-H322M,0.935
19,LCLC-97TM1,0.545
20,NCI-H2009,1.14
21,A-427,0.867
22,NCI-H441,0.347
23,NCI-H661,1.08
24,NCI-H1734,0.19
25,NCI-H460,0.0389
26,SK-LU-1,0.187
27,NCI-H1395,0.651
28,201T,1.1
29,NCI-H1915,0.691

# Same assay, conditions: first compound 0.128 µM
row,Cell Line,relative viability
1,NCI-H2126,0.844
2,EMC-BAC-2,1.23
3,NCI-H2085,0.445
4,NCI-H1666,1.01
5,NCI-H596,0.893
6,LK-2,0.21
7,NCI-H2087,0.165
8,SK-MES-1,0.791
9,H3255,0.848
10,COR-L23,0.688
11,COR-L 105,0.737
12,LOU-NH91,0.352
13,NCI-H2405,0.56
14,HOP-62,1
15,HCC-44,1.04
16,LU99A,0.261

row,Cell Line,relative viability
1,BEN,0.36
2,HARA,0.516
3,NCI-H322M,0.756
4,LCLC-97TM1,0.757
5,NCI-H2009,1.04
6,A-427,0.895
7,NCI-H441,0.31
8,NCI-H661,0.948
9,NCI-H1734,0.16
10,NCI-H460,0.0319
11,NCI-H2347,0.576
12,SK-LU-1,0.203
13,NCI-H1395,0.646
14,201T,0.929
15,NCI-H1915,0.625

# Same assay, conditions: first compound 1.28 µM
row,Cell Line,relative viability
1,NCI-H2126,0.648
2,EMC-BAC-2,1.06
3,NCI-H2085,0.43
4,NCI-H1666,1.04
5,NCI-H596,0.583
6,LK-2,0.159
7,NCI-H2087,0.152
8,SK-MES-1,0.375
9,H3255,0.701
10,COR-L23,0.736
11,COR-L 105,0.479
12,LOU-NH91,0.321
13,NCI-H2405,0.251
14,HOP-62,0.879
15,HCC-44,1.01
16,LU99A,0.277

row,Cell Line,relative viability
1,BEN,0.259
2,HARA,0.296
3,NCI-H322M,0.483
4,LCLC-97TM1,0.404
5,NCI-H2009,1.08
6,A-427,0.794
7,NCI-H441,0.244
8,NCI-H661,0.946
9,NCI-H1734,0.172
10,NCI-H460,0.0347
11,NCI-H2347,0.34
12,SK-LU-1,0.141
13,NCI-H1395,0.398
14,201T,0.539
15,NCI-H1915,0.678

# Compound: CO[C@@H]1[C@H](N(C)C(=O)c2ccccc2)C[C@H]2O[C@]1(C)n1c3ccccc3c3c4c(c5c6ccccc6n2c5c31)C(=O)NC4 [Midostaurin] + C[C@]1(O)C[C@@H](c2nc(-c3ccc4ccc(-c5ccccc5)nc4c3)c3c(N)nccn32)C1 [Linsitinib] (partner 1 µM)
# Assay: as above
# Conditions: first compound 0.01 µM
# Method in brief: as §1
row,Cell Line,relative viability
1,NCI-H2126,0.742
2,EMC-BAC-2,0.84
3,NCI-H2085,0.842
4,NCI-H1666,0.897
5,NCI-H596,1.09
6,LK-2,0.462
7,NCI-H2087,0.985
8,SK-MES-1,1.05
9,H3255,0.948
10,COR-L23,0.863
11,COR-L 105,0.818
12,LOU-NH91,1.05
13,NCI-H2405,0.965
14,HOP-62,1.1
15,HCC-44,0.756
16,LU99A,0.5

row,Cell Line,relative viability
1,BEN,0.926
2,HARA,0.936
3,NCI-H322M,0.993
4,LCLC-97TM1,0.193
5,NCI-H2009,1.2
6,A-427,1.14
7,NCI-H441,0.569
8,NCI-H661,0.56
9,NCI-H1734,0.832
10,NCI-H460,0.739
11,NCI-H2347,0.896
12,SK-LU-1,1.11
13,NCI-H1395,1.06
14,201T,1.05
15,NCI-H1915,1.05

# Same assay, conditions: first compound 0.03162 µM
row,Cell Line,relative viability
1,NCI-H2126,0.673
2,EMC-BAC-2,0.777
3,NCI-H2085,0.865
4,NCI-H1666,0.916
5,NCI-H596,1.17
6,LK-2,0.62
7,NCI-H2087,0.885
8,SK-MES-1,0.954
9,H3255,0.875
10,COR-L23,0.802
11,COR-L 105,0.922
12,LOU-NH91,0.885
13,NCI-H2405,1.01
14,HOP-62,0.911
15,HCC-44,0.659
16,LU99A,0.503
17,BEN,0.905
18,HARA,0.979
19,NCI-H322M,0.945
20,NCI-H2009,1.05
21,A-427,1.08
22,NCI-H441,0.56
23,NCI-H661,0.638
24,NCI-H1734,0.803
25,NCI-H460,0.732
26,NCI-H2347,0.837
27,SK-LU-1,0.961
28,NCI-H1395,1.22
29,201T,1
30,NCI-H1915,1.06

# Same assay, conditions: first compound 0.1 µM
row,Cell Line,relative viability
1,NCI-H2126,0.748
2,EMC-BAC-2,0.669
3,NCI-H2085,0.801
4,NCI-H1666,0.77
5,NCI-H596,1.08
6,LK-2,0.559
7,NCI-H2087,0.934
8,SK-MES-1,1.06
9,H3255,0.953
10,COR-L23,0.764
11,COR-L 105,0.766
12,LOU-NH91,0.958
13,HOP-62,0.938
14,HCC-44,0.579
15,LU99A,0.408
16,BEN,1.02
17,HARA,0.877
18,NCI-H322M,1.08
19,LCLC-97TM1,0.145
20,NCI-H2009,1.06
21,A-427,1.09
22,NCI-H441,0.432
23,NCI-H661,0.532
24,NCI-H1734,0.728
25,NCI-H460,0.75
26,NCI-H2347,0.899
27,SK-LU-1,1.06
28,NCI-H1395,1.01
29,201T,1.07
30,NCI-H1915,1.09

# Same assay, conditions: first compound 0.3162 µM
row,Cell Line,relative viability
1,NCI-H2126,0.792
2,EMC-BAC-2,0.765
3,NCI-H2085,0.768
4,NCI-H1666,0.822
5,NCI-H596,1.15
6,LK-2,0.816
7,NCI-H2087,1.01
8,SK-MES-1,1.07
9,H3255,1
10,COR-L23,0.764
11,COR-L 105,0.727
12,LOU-NH91,0.953
13,NCI-H2405,0.853
14,HOP-62,0.995
15,HCC-44,0.609
16,LU99A,0.407

row,Cell Line,relative viability
1,BEN,0.978
2,HARA,0.969
3,NCI-H322M,1.08
4,LCLC-97TM1,0.184
5,NCI-H2009,1.19
6,A-427,1.09
7,NCI-H441,0.435
8,NCI-H661,0.439
9,NCI-H1734,0.928
10,NCI-H460,0.694
11,NCI-H2347,0.927
12,SK-LU-1,0.664
13,NCI-H1395,1.02
14,201T,1.04
15,NCI-H1915,1.11

# Compound: COc1cc(-c2nn([C@H]3CC[C@H](N4CCN(C(C)=O)CC4)CC3)c3ncnc(N)c23)ccc1NC(=O)c1cc2ccccc2n1C + C[C@]1(O)C[C@@H](c2nc(-c3ccc4ccc(-c5ccccc5)nc4c3)c3c(N)nccn32)C1 [Linsitinib] (partner 1 µM)
# Assay: as above
# Conditions: first compound 0.0128 µM
# Method in brief: as §1
row,Cell Line,relative viability
1,NCI-H2126,0.825
2,EMC-BAC-2,0.869
3,NCI-H2085,0.832
4,NCI-H1666,0.804
5,NCI-H596,1.1
6,LK-2,0.554
7,NCI-H2087,1.1
8,SK-MES-1,1.13
9,H3255,1.04
10,COR-L23,0.866
11,COR-L 105,1.04
12,LOU-NH91,0.889
13,NCI-H2405,0.886
14,HOP-62,0.955
15,HCC-44,0.764
16,LU99A,0.555

row,Cell Line,relative viability
1,BEN,0.815
2,HARA,1
3,NCI-H322M,0.9
4,LCLC-97TM1,0.183
5,NCI-H2009,1.2
6,A-427,1.16
7,NCI-H441,0.555
8,NCI-H661,0.618
9,NCI-H1734,0.847
10,NCI-H460,0.662
11,NCI-H2347,0.949
12,SK-LU-1,1.23
13,NCI-H1395,0.965
14,201T,0.979
15,NCI-H1915,1.17

# Same assay, conditions: first compound 0.04048 µM
row,Cell Line,relative viability
1,NCI-H2126,0.765
2,EMC-BAC-2,0.806
3,NCI-H2085,0.932
4,NCI-H1666,0.816
5,NCI-H596,1.3
6,LK-2,0.522
7,NCI-H2087,0.875
8,SK-MES-1,1.17
9,H3255,0.935
10,COR-L23,0.96
11,COR-L 105,0.77
12,LOU-NH91,1.02
13,NCI-H2405,0.541
14,HOP-62,0.964
15,HCC-44,0.687
16,LU99A,0.563
17,BEN,0.926
18,HARA,0.873
19,NCI-H322M,0.909
20,LCLC-97TM1,0.205
21,NCI-H2009,1.18
22,A-427,1.08
23,NCI-H441,0.612
24,NCI-H661,0.507
25,NCI-H1734,0.772
26,NCI-H460,1.09
27,NCI-H2347,0.856
28,SK-LU-1,1.26
29,NCI-H1395,1.21
30,201T,1.05
